# Data: patent US7897629B2, “Therapeutic compounds” (Allergan, Inc., priority 2006, dated 2011)
# Tests used:
# EP2 [1] = molecular target: T1, EP2 (Homo sapiens, UniProt P43116); experiment: EP2 cAMP functional assay; assay type: cell-based
# EP2 [2] = molecular target: T1, EP2; experiment: EP2 binding assay
# EP2 [3] = molecular target: T1, EP2; experiment: EP2 Ca2+ signal assay; assay type: cell-based
# T1 sequence (P43116 whole entry): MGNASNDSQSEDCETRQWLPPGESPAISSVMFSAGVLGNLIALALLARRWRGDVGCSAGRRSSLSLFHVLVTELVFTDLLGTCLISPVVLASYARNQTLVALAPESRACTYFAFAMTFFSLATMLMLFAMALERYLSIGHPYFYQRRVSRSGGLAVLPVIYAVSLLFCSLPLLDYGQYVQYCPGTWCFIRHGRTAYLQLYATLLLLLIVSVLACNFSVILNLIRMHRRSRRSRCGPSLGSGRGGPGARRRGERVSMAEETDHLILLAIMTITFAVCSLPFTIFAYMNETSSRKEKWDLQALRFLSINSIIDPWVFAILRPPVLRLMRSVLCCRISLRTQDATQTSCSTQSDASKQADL
EC50 (EP2 [1]) [nM],EC50 (EP2 [2]) [nM],EC50 (EP2 [3]) [nM],SMILES
98,1200,5420,CCCCCC(=O)c1ccc(N2C(COCc3ccc(C(=O)O)s3)CCS2(=O)=O)cc1 (stereo not drawn) [Compound 17]
115,2920,8320,CCCCCC(O)c1ccc(N2C(COCc3ccc(C(=O)O)s3)CCS2(=O)=O)cc1 (stereo not drawn) [Compound 15]
